ChEMBL document CHEMBL1201862, “PubChem BioAssay data set” (2004)
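Cultured in 96-well plates, cells were exposed to test compound for 48 hours across five concentrations. GI50: concentration for 50% inhibition of growth.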 Active and inactive are the calls of the source. Cut-off read from the data, not from the text of the source: active = GI50 up to about 1.1 µM and inactive = higher.

How the values were obtained:
Assay in all cases: DTP human tumour cell line panel, 48 h
786-0 = test system: 786-0
A498 = test system: A498
A549 = test system: A549
ACHN = test system: ACHN
CAKI-1 = test system: CAKI-1
CCRF-CEM = test system: CCRF-CEM
COLO 205 = test system: COLO 205
HCT-116 = test system: HCT-116
HCT-15 = test system: HCT-15
HOP-92 = test system: HOP-92
HT-29 = test system: HT-29
K562 = test system: K562
LOX IMVI = test system: LOX IMVI
M14 = test system: M14
MCF7 = test system: MCF7
MDA-MB-435 = test system: MDA-MB-435
MOLT-4 = test system: MOLT-4
Malme-3M = test system: Malme-3M
NCI-H226 = test system: NCI-H226
NCI-H23 = test system: NCI-H23
NCI-H460 = test system: NCI-H460
NCI-H522 = test system: NCI-H522
NCI/ADR-RES = test system: NCI/ADR-RES
OVCAR-5 = test system: OVCAR-5
OVCAR-8 = test system: OVCAR-8
RPMI-8226 = test system: RPMI-8226
SF-268 = test system: SF-268
SF-295 = test system: SF-295
SF-539 = test system: SF-539
SK-MEL-28 = test system: SK-MEL-28
SK-MEL-2 = test system: SK-MEL-2
SN12C = test system: SN12C
SR = test system: SR
SW-620 = test system: SW-620
TK-10 = test system: TK-10
U-251 = test system: U-251
UACC-257 = test system: UACC-257
UACC-62 = test system: UACC-62
UO-31 = test system: UO-31
DU-145 = test system: DU-145
EKVX = test system: EKVX
HCC 2998 = test system: HCC 2998
HL-60 = test system: HL-60
HOP-62 = test system: HOP-62
IGROV-1 = test system: IGROV-1
KM12 = test system: KM12
MDA-MB-231 = test system: MDA-MB-231
MDA-N = test system: MDA-N
OVCAR-3 = test system: OVCAR-3
OVCAR-4 = test system: OVCAR-4
PC-3 = test system: PC-3
RXF 393 = test system: RXF 393
SK-MEL-5 = test system: SK-MEL-5
SK-OV-3 = test system: SK-OV-3
SNB-19 = test system: SNB-19
SNB-75 = test system: SNB-75
T47D = test system: T47D
Hs-578T = test system: Hs-578T

Measured: GI50

COc1cc([C@@H]2c3cc4c(cc3[C@@H](Nc3ccc(C(=O)N[C@H]5CCc6cc(OC)c(OC)c(OC)c6-c6ccc(SC)c(=O)cc65)cc3)[C@H]3COC(=O)[C@H]23)OCO4)cc(OC)c1O
inactive: OVCAR-5 43.1 µM | SF-268 11.7 µM | SK-MEL-28 13 µM | TK-10 15.2 µM
0.428 µM: HCT-15
active: 786-0 < 0.01 µM | A498 0.437 µM | A549 < 0.01 µM | ACHN 0.0598 µM | CAKI-1 0.132 µM | CCRF-CEM < 0.01 µM | COLO 205 < 0.01 µM | HCT-116 < 0.01 µM | HOP-92 0.042 µM | HT-29 < 0.01 µM | K562 < 0.01 µM | LOX IMVI < 0.01 µM | M14 < 0.01 µM | MCF7 < 0.01 µM | MDA-MB-435 < 0.01 µM | MOLT-4 < 0.01 µM | Malme-3M 0.322 µM | NCI-H226 < 0.01 µM | NCI-H23 < 0.01 µM | NCI-H460 < 0.01 µM | NCI-H522 < 0.01 µM | NCI/ADR-RES 0.493 µM | OVCAR-8 < 0.01 µM | RPMI-8226 < 0.01 µM | SF-295 < 0.01 µM | SF-539 < 0.01 µM | SK-MEL-2 < 0.01 µM | SN12C < 0.01 µM | SR < 0.01 µM | SW-620 < 0.01 µM | U-251 < 0.01 µM | UACC-257 < 0.01 µM | UACC-62 < 0.01 µM | UO-31 0.698 µM

NCc1ccc(-c2ccc(CN)s2)s1
inactive: 786-0 > 100 µM | A498 1.22 µM | A549 > 100 µM | ACHN > 100 µM | CAKI-1 > 100 µM | CCRF-CEM > 100 µM | COLO 205 23 µM | DU-145 > 100 µM | EKVX > 100 µM | HCC 2998 > 100 µM | HCT-116 > 100 µM | HL-60 > 100 µM | HOP-62 > 100 µM | HOP-92 > 100 µM | HT-29 > 100 µM | IGROV-1 10.9 µM | K562 > 100 µM | KM12 > 100 µM | LOX IMVI > 100 µM | M14 > 100 µM | MCF7 44 µM | MDA-MB-231 > 100 µM | MDA-MB-435 > 100 µM | MDA-N > 100 µM | MOLT-4 > 100 µM | Malme-3M > 100 µM | NCI-H226 41.1 µM | NCI-H23 > 100 µM | NCI-H522 > 100 µM | NCI/ADR-RES 13.1 µM | OVCAR-3 42.3 µM | OVCAR-4 > 100 µM | OVCAR-5 56.2 µM | OVCAR-8 86.5 µM | PC-3 > 100 µM | RPMI-8226 > 100 µM | RXF 393 > 100 µM | SF-295 > 100 µM | SF-539 > 100 µM | SK-MEL-28 > 100 µM | SK-MEL-2 > 100 µM | SK-MEL-5 > 100 µM | SK-OV-3 83.8 µM | SN12C > 100 µM | SNB-19 > 100 µM | SNB-75 > 100 µM | SW-620 > 100 µM | T47D 69.8 µM | TK-10 11.3 µM | U-251 > 100 µM | UACC-257 42.4 µM | UACC-62 14.6 µM | UO-31 > 100 µM
> 100 µM: HCT-15

COc1ccc(/C=C2\Sc3nnc(CNc4ccc(Cl)cc4)n3N=C2c2cc(F)c(Cl)cc2Cl)cc1OC
inactive: 786-0 24.5 µM | A498 > 100 µM | ACHN 48.4 µM | CAKI-1 23.6 µM | CCRF-CEM 4.97 µM | DU-145 71.6 µM | EKVX > 100 µM | HCC 2998 31 µM | HCT-116 14.8 µM | HL-60 45.7 µM | HOP-62 > 100 µM | HOP-92 17 µM | HT-29 28.6 µM | Hs-578T 51.2 µM | IGROV-1 > 100 µM | K562 19 µM | KM12 83.8 µM | LOX IMVI 29.3 µM | M14 59.8 µM | MCF7 23.9 µM | MDA-MB-231 > 100 µM | MDA-MB-435 27.2 µM | MDA-N 24 µM | MOLT-4 10.9 µM | NCI-H226 > 100 µM | NCI-H23 28.1 µM | NCI-H460 53.6 µM | NCI-H522 27.7 µM | NCI/ADR-RES 17.9 µM | OVCAR-3 48.1 µM | OVCAR-4 22.5 µM | OVCAR-5 88.9 µM | OVCAR-8 24.7 µM | PC-3 67.1 µM | RPMI-8226 7.57 µM | RXF 393 15.8 µM | SF-268 20.6 µM | SF-295 > 100 µM | SF-539 > 100 µM | SK-MEL-28 > 100 µM | SK-MEL-2 > 100 µM | SK-MEL-5 > 100 µM | SK-OV-3 > 100 µM | SR 21 µM | SW-620 15.8 µM | T47D 44.3 µM | TK-10 86.7 µM | U-251 > 100 µM | UACC-257 > 100 µM | UO-31 56.9 µM
15.9 µM: HCT-15

COc1cc(C2c3cc4c(cc3[C@@H](NC3CCN(Cc5ccccc5)CC3)C3COC(=O)[C@H]23)OCO4)cc(OC)c1O (some centres not stated)
active: SN12C 0.0399 µM | SR < 0.01 µM

CC(C)Cc1ccc(C(C)C(=O)O)cc1 (configuration not stated) [IBUPROFEN]
inactive: NCI-H23 > 100 µM
